How the values were obtained:
[1] = biological target: Myeloid Cell Leukemia 1 (Mcl-1) (Homo sapiens (Human), UniProt Q07820); assay: Terbium labeled Mcl-1 HTRF binding assay (displacement of Cy5-labeled BIM BH3 peptide); conditions: 25 pM Tb-Mcl-1, 8 nM Cy5 Bim peptide, Ki=IC50/(1+[L]/Kd), [L]=8 nM, Kd=10 nM, read-out: TB-MCL1 Ki
Experimental: Terbium labeled Myeloid Cell Leukemia 1 (Mcl-1) homogeneous time-resolved fluorescence (HTRF) binding assay utilizing the BIM BH3 peptide (H2N-(C/Cy5Mal) WIAQELRRIGDEFN-OH) as the binding partner for Mcl-1.
This assay evaluated inhibition of the BH3 domain: Mcl-1 interaction by measuring the displacement of Cy5-labeled BIM BH3 peptide (H2N—(C/Cy5Mal) WIAQELRRIGDEFN-OH) in the HTRF assay format.
The following assay and stock buffers were prepared for use in the assay: (a) Stock buffer: 10 mM Tris-HCl, pH=7.5+150 mM NaCl, filtered, sterilized, and stored at 4° C.; and (b) 1× assay buffer, where the following ingredients were added fresh to stock buffer: 2 mM dithiothreitol (DTT), 0.0025% Tween-20, 0.1 mg/mL bovine serum albumin (BSA). The 1×Tb-Mcl-1+Cy5 Bim peptide solution was prepared by diluting the protein stock solution using the 1× assay buffer (b) to 25 pM Tb-Mcl-1 and 8 nM Cy5 Bim peptide.
Using the Acoustic ECHO, 100 nL of 100× test compound(s) were dispensed into individual wells of a white 384-well Perkin Elmer Proxiplate, for a final compound concentration of 1× and final DMSO concentration of 1%. Inhibitor control and neutral control (NC, 100 nL of 100% DMSO) were stamped into columns 23 and 24 of assay plate, respectively. Into each well of the plate was then dispensed 10 μL of the 1×Tb-Mcl-1+Cy5 Bim peptide solution. The plate was centrifuged with a cover plate at 1000 rpm for 1 minute, then incubated for 60 minutes at room temperature with plates covered. The TR-FRET signal was read on an BMG PHERAStar FSX MicroPlate Reader at room temperature using the HTRF optic module (HTRF: excitation: 337 nm, light source: laser, emission A: 665 nm, emission B: 620 nm, integration start: 60 μs, integration time: 400 pts).
The BMG PHERAStar FSX MicroPlate Reader was used to measure fluorescence intensity at two emission wavelengths—665 nm and 620 nm—and report relative fluorescence units (RFU) for both emissions, as well as a ratio of the emissions (665 nm/620 nm)*10,000. The RFU values were normalized to percent inhibition as follows:
% inhibition=(((NC−IC)−(compound−IC))/(NC−IC))*100
where IC (inhibitor control, low signal)=mean signal of 1×Tb-MC1-1+Cy5 Bim peptide+inhibitor control or 100% inhibition of Mcl-1; NC (neutral control, high signal)=mean signal 1×Tb-MC1-1+Cy5 Bim peptide with DMSO only or 0% inhibition
An 11-point dose response curve was generated to determine IC50 values (using GenData) based on the following equation:
Y=Bottom+(Top−Bottom)/(1+10^((log IC50−X)*HillSlope))
where Y=% inhibition in the presence of X inhibitor concentration; Top=100% inhibition derived from the IC (mean signal of Mcl-1+inhibitor control); Bottom=0% inhibition derived from the NC (mean signal of Mcl-1+DMSO); Hillslope=Hill coefficient; and IC50=concentration of compound with 50% inhibition in relation to top/neutral control (NC).
In this assay [L]=8 nM and Kd=10 nM
Representative compounds of the present invention were tested according to the procedure as described above, with results as listed in the Table below (n.d. means not determined).

[2] = system: MOLP-8 human multiple myeloma cell line; assay: MOLP8 Caspase-Glo 3/7 apoptosis induction assay; type: cell-based; conditions: MOLP-8 cells, 2 hours incubation at 37° C., averaged values over all runs on all batches
Description: MCL-1 is a regulator of apoptosis and is highly over-expressed in tumor cells that escape cell death. The assay evaluates the cellular potency of small-molecule compounds targeting regulators of the apoptosis pathway, primarily MCL-1, Bfl-1, Bcl-2, and other proteins of the Bcl-2 family. Protein-protein inhibitors disrupting the interaction of anti-apoptotic regulators with BH3-domain proteins initiate apoptosis.
The Caspase-Glo® 3/7 Assay is a luminescent assay that measures caspase-3 and -7 activities in purified enzyme preparations or cultures of adherent or suspension cells. The assay provides a proluminescent caspase-3/7 substrate, which contains the tetrapeptide sequence DEVD. This substrate is cleaved to release aminoluciferin, a substrate of luciferase used in the production of light. Addition of the single Caspase-Glo® 3/7 Reagent in an “add-mix-measure” format results in cell lysis, followed by caspase cleavage of the substrate and generation of a “glow-type” luminescent signal.
This assay uses the MOLP-8 human multiple myeloma cell line, which is sensitive to MCL-1 inhibition.
Materials: • Perkin Elmer Envision • Multidrop 384 and small volume dispensing cassettes • Centrifuge • Countess automated cell counter • Countess counting chamber slides • Assay plate: ProxiPlate-384 Plus, White 384-shallow well Microplate • Sealing tape: Topseal A plus • T175 culture flask
Cell cultures were maintained between 0.2 and 2.0×10^6 cells/mL. The cells were harvested by collection in 50 mL conical tubes. The cells were then pelleted at 500 g for 5 mins before removing supernatant and resuspension in fresh pre-warmed culture medium. The cells were counted and diluted as needed.
The assay reagent was prepared by transferring the buffer solution to the substrate vial and mixing. The solution may be stored for up to 1 week at 4° C. with negligible loss of signal.
Compounds were delivered in assay-ready plates (Proxiplate) and stored at −20° C.
Assays always include 1 reference compound plate containing reference compounds. The plates were spotted with 40 nL of compounds (0.5% DMSO final in cells; serial dilution; 30 μM highest conc. 1/3 dilution, 10 doses, duplicates). The compounds were used at room temperature and 4 μL of pre-warmed media was added to all wells except column 2 and 23. The negative control was prepared by adding 1% DMSO in media. The positive control was prepared by adding the appropriate positive control compound in final concentration of 60 μM in media. The plate was prepared by adding 4 μL negative control to column 23, 4 μL positive control to column 2 and 4 μL cell suspension to all wells in the plate. The plate with cells was then incubated at 37° C. for 2 hours. The assay signal reagent is the Caspase-Glo solution described above, and 8 μL was added to all wells. The plates were then sealed and measured after 30 minutes.
The activity of a test compound was calculated as percent change in apoptosis induction as follows: • LC=median of the Low Control values • =Central Reference in Screener • =DMSO • =0% • HC=Median of the High Control values • =Scale Reference in Screener • =30 μM of positive control • =100% apoptosis induction
% Effect (AC50)=100−((sample−LC)/(HC−LC))*100
% Control=(sample/HC)*100
% Control min=((sample−LC)/(HC−LC))*100

Chain of Myeloid Cell Leukemia 1 (Mcl-1) (Q07820 whole entry): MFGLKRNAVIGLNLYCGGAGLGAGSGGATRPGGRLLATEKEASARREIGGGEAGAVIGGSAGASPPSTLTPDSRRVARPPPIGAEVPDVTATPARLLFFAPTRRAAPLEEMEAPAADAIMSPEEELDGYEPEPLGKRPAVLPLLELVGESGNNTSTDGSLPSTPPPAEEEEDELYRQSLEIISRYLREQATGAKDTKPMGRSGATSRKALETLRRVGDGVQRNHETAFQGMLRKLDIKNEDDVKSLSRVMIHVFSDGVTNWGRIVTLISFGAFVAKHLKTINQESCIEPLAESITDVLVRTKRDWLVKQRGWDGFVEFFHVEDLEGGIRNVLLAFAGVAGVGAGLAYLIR

| SMILES | Ki [1] | AC50 ([2]; Homo sapiens, MOLP-8, 2 h) | AC50 [2] |
| --- | --- | --- | --- |
| CNCCC1OCc2cc(n(C)n2)CCc2cc(c3ccc(F)cc3c2)OCCCn2c(C(=O)O)c(C)c3c(c(Cl)ccc32)-c2c1nn(C)c2C (centres unmarked) [Compound 26] | 3.61 nM | > 30 nM |  |
| Cc1c(C(=O)O)n2c3ccc(Cl)c(c13)-c1c(nn(C)c1C)C(C)OCc1cc(n(C)n1)CCc1cc(c3ccc(F)cc3c1)OCCC2 (single isomer, unassigned) [Compound 17] | 0.042 nM |  | 129 nM |
| COCCOCC1OCc2cc(n(C)n2)CCc2cc(c3ccc(F)cc3c2)OCCCn2c(C(=O)O)c(C)c3c(c(Cl)ccc32)-c2c1nn(C)c2C (single isomer, unassigned) [Compound 14] | 0.018 nM | 205 nM |  |
| COCC1OCc2cc(n(C)n2)CCc2cc(c3ccc(F)cc3c2)OCCCn2c(C(=O)O)c(C)c3c(c(Cl)ccc32)-c2c1nn(C)c2C (single isomer, unassigned) [Compound 16] | 0.104 nM |  | 230 nM |
| Cc1c(C(=O)O)n2c3ccc(Cl)c(c13)-c1c(nn(C)c1C)C(CCN1CCOCC1)OCc1cc(n(C)n1)CCc1cc(c3ccc(F)cc3c1)OCCC2 (single isomer, unassigned) [Compound 7] | 0.011 nM | 149 nM |  |
| Cc1nn2c3c1-c1c(Cl)ccc4c1c(C)c(C(=O)O)n4CCCOc1cc(cc4cc(F)ccc14)CCc1cc(nn1C)CCC3OCC2 (centres unmarked) [Compound 30] |  |  | 52.8 nM |
| COCCC1OCc2cc(n(C)n2)CCc2cc(c3ccc(F)cc3c2)OCCCn2c(C(=O)O)c(C)c3c(c(Cl)ccc32)-c2c1nn(C)c2C (single isomer, unassigned) [Compound 4] | 0.009 nM |  | 28.4 nM |
| Cc1c(C(=O)O)n2c3ccc(Cl)c(c13)-c1c(nn(C)c1C)C(CC(C)O)OCc1cc(n(C)n1)CCc1cc(c3ccc(F)cc3c1)OCCC2 (single isomer, unassigned) [Compound 20] | 0.023 nM |  | 683 nM |
| Cc1c(C(=O)O)n2c3ccc(Cl)c(c13)-c1c(nn(C)c1C)C(CCCO)OCc1cc(n(C)n1)CCc1cc(c3ccc(F)cc3c1)OCCC2 (single isomer, unassigned) [Compound 11] | 0.01 nM |  | 303 nM |
| Cc1c(C(=O)O)n2c3ccc(Cl)c(c13)-c1c(nn(C)c1C)C(CCN1CCN(C)CC1)OCc1cc(n(C)n1)CCc1cc(c3ccc(F)cc3c1)OCCC2 (single isomer, unassigned) [Compound 8] | 0.013 nM | 1160 nM |  |
| Cc1c(C(=O)O)n2c3ccc(Cl)c(c13)-c1c(nn(C)c1C)C(CN1CCOCC1)OCc1cc(n(C)n1)CCc1cc(c3ccc(F)cc3c1)OCCC2 (single isomer, unassigned) [Compound 13] | 0.058 nM | 1370 nM |  |
| C=CC1OCc2cc(n(C)n2)CCc2cc(c3ccc(F)cc3c2)OCCCn2c(C(=O)O)c(C)c3c(c(Cl)ccc32)-c2c1nn(C)c2C (single isomer, unassigned) [Compound 2] | 0.024 nM |  | 19.5 nM |
| COCCCC1OCc2cc(n(C)n2)CCc2cc(c3ccc(F)cc3c2)OCCCn2c(C(=O)O)c(C)c3c(c(Cl)ccc32)-c2c1nn(C)c2C (single isomer, unassigned) [Compound 24] | 8.42 nM |  | > 25 nM |
| COCCn1nc2cc1CCc1cc(c3ccc(F)cc3c1)OCCCn1c(C(=O)O)c(C)c3c(c(Cl)ccc31)-c1c(C)nn3c1C(CC2)OCC3 (centres unmarked) [Compound 34] | 0.408 nM |  | 889 nM |
| COCCOCCC1OCc2cc(n(C)n2)CCc2cc(c3ccc(F)cc3c2)OCCCn2c(C(=O)O)c(C)c3c(c(Cl)ccc32)-c2c1nn(C)c2C (single isomer, unassigned) [Compound 5] | 0.011 nM | 22.6 nM |  |
| COCCn1nc2cc1CCc1cc(c3ccc(F)cc3c1)OCCCn1c(C(=O)O)c(C)c3c(c(Cl)ccc31)-c1c(C)nn3c1C(CC2)OCC3 (centres unmarked) [Compound 31] |  | 48.6 nM |  |
| COc1ccc(COC2CCc3cc(n(C)n3)CCc3cc(c4ccc(F)cc4c3)OCCCn3c(C(=O)O)c(C)c4c(c(Cl)ccc43)-c3c2nn(C)c3C)cc1 (single isomer, unassigned) [Compound 23] | 0.073 nM |  | 169 nM |
| CCOCCC1OCc2cc(n(C)n2)CCc2cc(c3ccc(F)cc3c2)OCCCn2c(C(=O)O)c(C)c3c(c(Cl)ccc32)-c2c1nn(C)c2C (single isomer, unassigned) [Compound 9] | 0.009 nM | 43.6 nM |  |
| COCC1OCc2cc(n(C)n2)CCc2cc(c3ccc(F)cc3c2)OCCCn2c(C(=O)O)c(C)c3c(c(Cl)ccc32)-c2c1nn(C)c2C (single isomer, unassigned) [Compound 15] | 0.048 nM |  | 66.1 nM |
| COCCC1OCc2cc(n(C)n2)CCc2cc(c3ccc(F)cc3c2)OCCCn2c(C(=O)O)c(C)c3c(c(Cl)ccc32)-c2c1nn(C)c2C (single isomer, unassigned) [Compound 3] | 0.039 nM |  | 154 nM |
| C=CC1OCc2cc(n(C)n2)CCc2cc(c3ccc(F)cc3c2)OCCCn2c(C(=O)O)c(C)c3c(c(Cl)ccc32)-c2c1nn(C)c2C (single isomer, unassigned) [Compound 1] | 0.059 nM |  | 101 nM |
| COc1ccc(COC2CCc3cc(n(C)n3)CCc3cc(c4ccc(F)cc4c3)OCCCn3c(C(=O)O)c(C)c4c(c(Cl)ccc43)-c3c2nn(C)c3C)cc1 (single isomer, unassigned) [Compound 22] | 0.357 nM |  | 1000 nM |
| Cc1nn2c3c1-c1c(Cl)ccc4c1c(C)c(C(=O)O)n4CCCOc1cc(cc4cc(F)ccc14)CCc1cc(nn1C)CCC3OCC2 (centres unmarked) [Compound 28] |  |  | > 30 nM |
| Cc1nn2c3c1-c1c(Cl)ccc4c1c(C)c(C(=O)O)n4CCCOc1cc(cc4cc(F)ccc14)CCc1cc(nn1C)CCC3OCC2 (centres unmarked) [Compound 27] |  |  | 8.5 nM |

— patent US20240124487A1, “BRANCHED MACROCYCLIC 4-(PYRAZOL-5-YL)-INDOLE DERIVATIVES AS INHIBITORS OF MCL-1” (JANSSEN PHARMACEUTICA NV, priority 2020, published 2024)
